Data as given in patent US6303596A, “Use of taurolidine for treatment of leukemias” (priority 2000, dated 2001).

How the values were obtained:
[1] = system: MM6 cells; experiment: trypan blue exclusion, MM6; type: cell-based, human
Procedure: FIG. 4A and FIG. 4B are graphs depicting cell viability and growth rates following taurolidine treatment as determined by assay procedures. MM6 cells were treated with taurolidine as described in FIG. 3. After aliquots were collected for the lactate dehydrogenase (LDH) assay, the remainder of the culture was rinsed in Hank's balanced salt solution (HBSS) and resuspended in RPMI+10% BCS without taurolidine. Counts of trypan blue-negative cells represented in FIG. 4A and total cell number represented in FIG. 4B were recorded daily thereafter (with the measurement at Day 1 being made immediately after the four hour taurolidine treatment). Conditions were no treatment (open squares); 50 μg/ml taurolidine (closed squares); 25 μg/ml taurolidine (open circles); and vehicle alone (closed circles). Cells were subcultured when they reached a concentration of 6×10^5 cells/ml. Data are mean±SEM of three experiments.
FIGS. 5A and 5B depict cell viability and growth rates for MM6 cell line following taurolidine treatment, in terms of % trypan blue negative cells and % cell number, respectively. Cells were treated with various concentrations of taurolidine for 4 hours in AIM-V+0.01% BCS. After aliquots were collected for LDH assay, the remainder of the culture was rinsed in HBSS and resuspended in RPMI+10% BCS without taurolidine. Counts of trypan blue-negative cells (FIG. 5A), and total cell number (FIG. 5B), were recorded daily thereafter (with the measurement at Day 1 being made immediately after the 4 hour taurolidine treatment). […] Doubling times were determined under each condition, and expressed as a percentage of the rate of doubling of untreated cells. […]
In these experiments, integrity of cell membranes following taurolidine treatment was assessed by exclusion of trypan blue and by measuring the release of LDH in MM6, K-562, HL-60, and REH cells. […] A parallel aliquot of cells was lysed by three cycles of freeze/thaw and the quantity of LDH released was taken to be 100%. […]

[2] = system: Lymphocytes; experiment: tissue or blood; type: cell-based, human; conditions: for induction of apoptosis in lymphocytes: whole blood
Procedure: (§1) FIGS. 15A, 15B, and 15C depict TUNEL analysis of PBMC treated with taurolidine in whole blood, for control cells, taurolidine-treated cells, and anisomycin-treated cells, respectively . Cells were incubated with 500 μg/ml taurolidine for 4 hours, resuspended in fresh medium, incubated for two hours further and processed for TUNEL analysis. Parallel samples were stained with FITC-conjugated anti-CD14 and PI as described herein. Ten thousand events were recorded per sample. TUNEL signal (x -axis) is a measure of DNA fragmentation, while FSC (y-axis) is related to cell size. TUNEL-negative lymphocytes are bounded by rectangle R 1, while TUNEL-negative monocytes (CD 14 positive cells) are bounded by rectangle R2. R3 bounds the TUNEL-positive population of cells. There were minimal numbers of PI-positive cells in 6 hour samples (see Table VI).
(§2) In the second method, DNA fragmentation was detected via TUNEL assay according to the manufacturer's instructions. With this methodology, 2×10^6 cells were fixed with 2% paraformaldehyde, permeabilized with 0.1% Triton X-100/0.1% citrate, incubated at 37° C. with terminal deoxynucleotidyl transferase and FITC-dUTP, rinsed and analyzed by flow cytometry. Enhanced FITC signal indicates apoptosis-specific DNA fragmentation. Gavriali, et al, "Identification of programmed cell death in situ via specific labeling of nuclear DNA fragmentation," J Cell Biol 119:493 (1992). Parallel aliquots of unfixed cells were treated with PI and FITC-conjugated anti-CD14 and analyzed by flow cytometry, in order to identify cells with permeable cell membranes (since PI binds to DNA but is excluded from cells with intact plasma membranes) and also to determine the cell-specificity of the apoptotic signal.
(§3) Taurolidine at 100 μg/ml induced apoptosis of approximately 75% of purified peripheral blood monocytes when these cells were incubated in culture medium. However, in order to more closely mimic the milieu of leukocytes in vivo, induction of apoptosis in PBMC by taurolidine was studied in whole blood (anticoagulated with heparin). As before, apoptosis was quantitated by measuring the loss of monocytes from a TUTNEL-negative (no DNA fragmentation), CD 14 positive population of cells which was concomitant with the appearance of a TUNEL-positive population of cells. Treatment of PBMC in whole blood resulted
(§4) in a shift of the taurolidine dose-response curve. […] As a positive control for induction of apoptosis, some cells were treated with anisomycin, a protein synthesis inhibitor known to induce apoptosis in monocytes.
(§5) ^a Analysis by flow cytometry after staining cells with PI and
(§6) processing for TUNEL. Data are mean ± SD of 2 experiments.
(§7) ^b Percent of cells present in the TUNEL-negative region in control

[3] = system: Monocytes; experiment: tissue or blood; type: cell-based, human
Procedure: as §1, §2, §3, §4, §5, §6, §7

[4] = septic patients, up to 20 grams for 2-5 consecutive days; cited from earlier work
[5] = intravenous administration; cited from earlier work
[6] = Homo sapiens, Lymphocyte, 6 h, read-out: % TUNEL-negative
[7] = Homo sapiens, Monocyte, 6 h, read-out: % TUNEL-negative

In the case of O=S1(=O)CCN(CN2CCS(=O)(=O)NC2)CN1 [taurolidine, 4,4'-methylenebis(perhydro-1,2,4-thiadiazin 1,1-dioxide)], the cytotoxicity at 50 µg/mL ([1]; Homo sapiens, MM6, 50 μg/ml taurolidine for 4 h, untreated and vehicle 5%, read-out: trypan blue-positive cells on the day following treatment (Day 2)) is reported as 65%, the “trypan blue staining after treatment” value ([1]; MM6, 25 μg/ml taurolidine) is reported as “did not show an increase in trypan blue staining” and the “trypan blue exclusion immediately after treatment (Day 1)” value ([1]; MM6, taurolidine-treated 4 h, versus control) is reported as “equally able to exclude trypan blue”. For the same molecule, the viability at 200 µg/mL [2, 6] was 92.7 ± 6%, the viability at 500 µg/mL [2, 6] was 91.8 ± 6.9% and the “induction of apoptosis in lymphocytes” value [2] was “no evidence for a significant effect”. For the same molecule, the “induction of apoptosis in lymphocytes” value ([2]; taurolidine up to 500 μg/ml) was “does not induce a significant amount of apoptosis”, the viability at 200 µg/mL [3, 7] was 117 ± 11.2% and the viability at 500 µg/mL [3, 7] was 27.9 ± 12%. The cytotoxicity at 500 µg/mL ([3]; Homo sapiens, Monocyte, read-out: loss of TUNEL-negative monocytes) was 70%, the “induction of apoptosis in whole blood” value ([3]; up to 200 μg/ml taurolidine) was “did not induce significant apoptosis” and the “effective concentration in whole blood relative to culture medium” value ([3]; whole blood versus purified PBMC in culture medium) was 5 times. The toxicity in humans [4] was “has not been associated with toxicity” and the “alterations in hematologic variables, including white cell count” value [5] was “does not cause detectable alterations”.
